Measurements as given in patent US20200055839A1 (priority 2017, published 2020).

What follows are compounds tested on NL-RLuc virus (assay: Inhibition of HIV replication (NL-RLuc virus, luciferase readout in MT-2 cells)). Details: Human immunodeficiency virus 1, MT2, 120 h, MT-2 cells infected with NL-RLuc virus, 5 days of incubation, 10% FBS, at least 2 experiments.
Format: cell-based
Procedure, shortened: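 EC50 derived via median effect equation from at least 2 experiments, using luciferase expression as virus-growth readout. Replication-competent NL-RLuc reporter virus (nef partly replaced by Renilla luciferase) infected MT-2 cells with serial compound dilutions; 5-day incubation in RPMI 1640 plus 10% FBS.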
`COc1ccccc1CCOc1ncc(-c2cnc(C)c([C@H](OC(C)(C)C)C(=O)O)c2N2CCC(C)(C)CC2)cc1F` [Example 382, (2S)-2-(tert-butoxy)-2-[4-(4,4-dimethylpiperidin-1-yl)-5′-fluoro-6′-[2-(2-methoxyphenyl)ethoxy]-6-methyl-[3,3′-bipyridine]-5-yl]acetic acid] was tested, and the EC50 was 5 nM.
In the case of `Cc1ncc(-c2ccc(OCCc3cccc(Cl)c3)cn2)c(N2CCC(C)(C)CC2)c1[C@H](OC(C)(C)C)C(=O)O` [Example 308, (2S)-2-(tert-butoxy)-2-{5-[2-(3-chlorophenyl)ethoxy]-4′-(4,4-dimethylpiperidin-1-yl)-6′-methyl-[2,3′-bipyridine]-5′-yl}acetic acid], the EC50 is reported as 0.7 nM.
`Cc1ncc(-c2ccc(CNc3ncnc4c3oc3ccccc34)cc2)c(N2CCC(C)(C)CC2)c1[C@H](OC(C)(C)C)C(=O)O` [Example 21, (2S)-2-(tert-Butoxy)-2-[4-(4,4-dimethylpiperidin-1-yl)-2-methyl-5-{4-[({8-oxa-3,5-diazatricyclo[7.4.0.0^2,7]trideca-1(9), 2(7), 3,5,10, 12-hexaen-6-yl}amino)methyl]phenyl}pyridin-3-yl]acetic acid] gave an EC50 of 2 nM.
`CC(=O)N1CCC(Nc2nc(C)c([C@H](OC(C)(C)C)C(=O)O)c(N3CCC(C)(C)CC3)c2-c2ccc(OCCc3ccc(F)cc3)cc2)CC1` [Example 100, (S)-2-(6-((1-Acetylpiperidin-4-yl)amino)-4-(4,4-dimethylpiperidin-1-yl)-5-(4-(4-fluorophenethoxy)phenyl)-2-methylpyridin-3-yl)-2-(tert-butoxy)acetic acid] gave an EC50 of 0.5 nM.
With `COc1ccc(CCOc2ncc(-c3cnc(C)c([C@H](OC(C)(C)C)C(=O)O)c3N3CCC(C)(C)CC3)cc2F)c(C)c1` [Example 399, (2S)-2-(tert-butoxy)-2-[4-(4,4-dimethylpiperidin-1-yl)-5′-fluoro-6′-[2-(4-methoxy-2-methylphenyl)ethoxy]-6-methyl-[3,3′-bipyridine]-5-yl]acetic acid] the EC50 was 2 nM.
`Cc1ncc(-c2ccc(OCCc3ccc(F)cc3Cl)cn2)c(N2CCC(C)(C)CC2)c1[C@H](OC(C)(C)C)C(=O)O` [Example 310, (2S)-2-(tert-butoxy)-2-{5-[2-(2-chloro-4-fluorophenyl)ethoxy]-4′-(4,4-dimethylpiperidin-1-yl)-6′-methyl-[2,3′-bipyridine]-5′-yl}acetic acid] gave an EC50 of 0.5 nM.
`COc1cccc(-c2cnc(C)c([C@H](OC(C)(C)C)C(=O)O)c2N2CCC(C)(C)CC2)c1OC` [Example 158, (2S)-2-(tert-Butoxy)-2-[5-(2,3-dimethoxyphenyl)-4-(4,4-dimethylpiperidin-1-yl)-2-methylpyridin-3-yl]acetic acid] was tested, and the EC50 was 16 nM.
For `Cc1ncc(-c2cc(F)c(OCCc3ccc(F)cc3)c(F)c2)c(N2CCC(C)(C)CC2)c1[C@H](OC(C)(C)C)C(=O)O` [Example 127, (S)-2-(tert-Butoxy)-2-(5-(3,5-difluoro-4-(4-fluorophenethoxy)phenyl)-4-(4,4-dimethylpiperidin-1-yl)-2-methylpyridin-3-yl)acetic acid], the EC50 was 4 nM.
`Cc1nc(CN2CCC3(CCC3)CC2)c(-c2ccccc2)c(N2CCC(C)(C)CC2)c1[C@H](OC(C)(C)C)C(=O)O` [Example 190, (2S)-2-[6-({7-Azaspiro[3.5]nonan-7-yl}methyl)-4-(4,4-dimethylpiperidin-1-yl)-2-methyl-5-phenylpyridin-3-yl]-2-(tert-butoxy)acetic acid] was tested, and the EC50 was 3 nM.
For `Cc1ncc(-c2cnc(OCCC(C)(C)C)c(F)c2)c(N2CCC(C)(C)CC2)c1[C@H](OC(C)(C)C)C(=O)O` [Example 376, (2S)-2-(tert-butoxy)-2-[6′-(3,3-dimethylbutoxy)-4-(4,4-dimethylpiperidin-1-yl)-5′-fluoro-6-methyl-[3,3′-bipyridine]-5-yl]acetic acid], the EC50 was 5 nM.
`Cc1ccc(Nc2nc(C)c([C@H](OC(C)(C)C)C(=O)O)c(N3CCC(C)(C)CC3)c2-c2ccc(OCCc3ccc(F)cc3)cc2)c(C)n1` [Example 85, (S)-2-(tert-Butoxy)-2-(4-(4,4-dimethylpiperidin-1-yl)-6-((2,6-dimethylpyridin-3-yl)amino)-5-(4-(4-fluorophenethoxy)phenyl)-2-methylpyridin-3-yl)acetic acid] was tested, and the EC50 was 3 nM.
Compound `Cc1ncc(-c2cccc(F)c2)c(N2CCC(C)(C)CC2)c1[C@H](OC(C)(C)C)C(=O)O` [Example 133, (2S)-2-(tert-Butoxy)-2-[4-(4,4-dimethylpiperidin-1-yl)-5-(3-fluorophenyl)-2-methylpyridin-3-yl]acetic acid] has an EC50 of 4 nM.
For `Cc1ccc(CCOc2ccc(-c3cnc(C)c([C@H](OC(C)(C)C)C(=O)O)c3N3CCC(C)(C)CC3)nc2)cc1F` [Example 332, (2S)-2-(tert-butoxy)-2-[4′-(4,4-dimethylpiperidin-1-yl)-5-[2-(3-fluoro-4-methylphenyl)ethoxy]-6′-methyl-[2,3′-bipyridine]-5′-yl]acetic acid], the EC50 was 0.5 nM.
In the case of `Cc1nc(-c2cn[nH]c2)c(-c2ccc(OCCc3ccc(F)cc3)cc2)c(N2CCC(C)(C)CC2)c1[C@H](OC(C)(C)C)C(=O)O` [Example 51, (S)-2-(tert-Butoxy)-2-(4-(4,4-dimethylpiperidin-1-yl)-5-(4-(4-fluorophenethoxy)phenyl)-2-methyl-6-(1H-pyrazol-4-yl)pyridin-3-yl)acetic acid], the EC50 is reported as 5 nM.
With `COc1nc(C)c(-c2ccc(OCCc3ccc(F)cc3)cc2)c(N2CCC(C)(C)CC2)c1[C@H](OC(C)(C)C)C(=O)O` [Example 3, (S)-2-(tert-Butoxy)-2-(4-(4,4-dimethylpiperidin-1-yl)-5-(4-(4-fluorophenethoxy)phenyl)-2-methoxy-6-methylpyridin-3-yl)acetic acid] the EC50 was 8 nM.
Compound `CN(Cc1nc(Cl)c([C@H](OC(C)(C)C)C(=O)O)c(N2CCC(C)(C)CC2)c1-c1ccc(OCCc2ccc(F)cc2)cc1)CC1CCOCC1` [Example 213, (S)-2-(tert-Butoxy)-2-(2-chloro-4-(4,4-dimethylpiperidin-1-yl)-5-(4-(4-fluorophenethoxy)phenyl)-6-((methyl((tetrahydro-2H-pyran-4-yl)methyl)amino)methyl)pyridin-3-yl)acetic acid] has an EC50 of 0.6 nM.
`Cc1ncc(-c2ccc(OCCc3ccccc3)c(F)c2)c(N2CCC(C)(C)CC2)c1[C@H](OC(C)(C)C)C(=O)O` [Example 258, (S)-2-(tert-Butoxy)-2-(4-(4,4-dimethylpiperidin-1-yl)-5-(3-fluoro-4-phenethoxyphenyl)-2-methylpyridin-3-yl)acetic acid] gave an EC50 of 1 nM.
`Cc1ncc(-c2ccccc2)c(N2CCC(C)(C)CC2)c1[C@H](OC(C)(C)C)C(=O)O` [Example 134, (2S)-2-(tert-Butoxy)-2-[4-(4,4-dimethylpiperidin-1-yl)-2-methyl-5-phenylpyridin-3-yl]acetic acid] showed an EC50 of 7 nM.
`Cc1ncc(-c2ccc(OCCc3ccc(F)cc3)c(F)c2F)c(N2CCC(C)(C)CC2)c1[C@H](OC(C)(C)C)C(=O)O` [Example 124, (S)-2-(tert-Butoxy)-2-(5-(2,3-difluoro-4-(4-fluorophenethoxy)phenyl)-4-(4,4-dimethylpiperidin-1-yl)-2-methylpyridin-3-yl)acetic acid] was tested, and the EC50 was 2 nM.
Work on `Cc1n[nH]cc1-c1nc(C)c([C@H](OC(C)(C)C)C(=O)O)c(N2CCC(C)(C)CC2)c1-c1ccc(OCCc2ccc(F)cc2)cc1` [Example 38, (S)-2-(tert-Butoxy)-2-(4-(4,4-dimethylpiperidin-1-yl)-5-(4-(4-fluorophenethoxy)phenyl)-2-methyl-6-(3-methyl-1H-pyrazol-4-yl)pyridin-3-yl)acetic acid] yielded an EC50 of 8 nM.
Compound `COc1nc(OCC(C)C)ccc1-c1cnc(C)c([C@H](OC(C)(C)C)C(=O)O)c1N1CCC(C)(C)CC1` [Example 413, (S)-2-(tert-Butoxy)-2-(4-(4,4-dimethylpiperidin-1-yl)-6′-isobutoxy-2′-methoxy-6-methyl-[3,3′-bipyridin]-5-yl)acetic acid] has an EC50 of 16 nM.
In the case of `CCCCC(F)(F)c1ccc(-c2cnc(C)c([C@H](OC(C)(C)C)C(=O)O)c2N2CCC(C)(C)CC2)nc1` [Example 276, (S)-2-(tert-Butoxy)-2-(5-(1,1-difluoropentyl)-4′-(4,4-dimethylpiperidin-1-yl)-6′-methyl-[2, 3′-bipyridin]-5′-yl)acetic acid], the EC50 is reported as 14 nM.
`Cc1nc(-c2ccnn2C)c(-c2ccc(OCCc3ccc(F)cc3)cc2)c(N2CCC(C)(C)CC2)c1[C@H](OC(C)(C)C)C(=O)O` [Example 50, (S)-2-(tert-Butoxy)-2-(4-(4,4-dimethylpiperidin-1-yl)-5-(4-(4-fluorophenethoxy)phenyl)-2-methyl-6-(1-methyl-1H-pyrazol-5-yl)pyridin-3-yl)acetic acid] showed an EC50 of 2 nM.
`CC1(C)CCN(c2c(-c3ccccn3)cnc(Cl)c2[C@H](OC(C)(C)C)C(=O)O)CC1` [Example 223, (2S)-2-(tert-Butoxy)-2-[6′-chloro-4′-(4,4-dimethylpiperidin-1-yl)-[2, 3′-bipyridine]-5′-yl]acetic acid] showed an EC50 of 15 nM.
`Cc1ncc(-c2ccc(OCC(C)C)nc2F)c(N2CCC(C)(C)CC2)c1[C@H](OC(C)(C)C)C(=O)O` [Example 434, (2S)-2-tert-Butoxy-2-(4-(4,4-dimethylpiperidin-1-yl)-2′-fluoro-6′-isobutoxy-6-methyl-3, 3′-bipyridin-5-yl)acetic acid] was tested, and the EC50 was 13 nM.
In the case of `Cc1ncc(-c2ccc(CCC(C)C)nc2)c(N2CCC(C)(C)CC2)c1[C@H](OC(C)(C)C)C(=O)O` [Example 420, (S)-2-(tert-Butoxy)-2-(4-(4,4-dimethylpiperidin-1-yl)-6′-isopentyl-6-methyl-[3, 3′-bipyridin]-5-yl)acetic acid], the EC50 is reported as 13 nM.
`CCOc1ccc(CCOc2ccc(-c3cnc(C)c([C@H](OC(C)(C)C)C(=O)O)c3N3CCC(C)(C)CC3)nc2)cc1` [Example 320, (2S)-2-(tert-butoxy)-2-[4′-(4,4-dimethylpiperidin-1-yl)-5-[2-(4-ethoxyphenyl)ethoxy]-6′-methyl-[2,3′-bipyridine]-5′-yl]acetic acid] gave an EC50 of 2 nM.
